Results on 18 compounds are retold here after patent US20230159532A1, “PARATHYROID HORMONE (PTH) RECEPTOR ANTAGONISTS AND USES THEREOF” (Crinetics Pharmaceuticals, Inc., priority 2021, published 2023).

Where only a bound is given, the exact number is not on record here.

The test has as its target T1, human PTHR1 receptor (Homo sapiens, UniProt Q03431).
T1 construct: purchased Eurofins HTS030M
T1 sequence (Q03431 27-593): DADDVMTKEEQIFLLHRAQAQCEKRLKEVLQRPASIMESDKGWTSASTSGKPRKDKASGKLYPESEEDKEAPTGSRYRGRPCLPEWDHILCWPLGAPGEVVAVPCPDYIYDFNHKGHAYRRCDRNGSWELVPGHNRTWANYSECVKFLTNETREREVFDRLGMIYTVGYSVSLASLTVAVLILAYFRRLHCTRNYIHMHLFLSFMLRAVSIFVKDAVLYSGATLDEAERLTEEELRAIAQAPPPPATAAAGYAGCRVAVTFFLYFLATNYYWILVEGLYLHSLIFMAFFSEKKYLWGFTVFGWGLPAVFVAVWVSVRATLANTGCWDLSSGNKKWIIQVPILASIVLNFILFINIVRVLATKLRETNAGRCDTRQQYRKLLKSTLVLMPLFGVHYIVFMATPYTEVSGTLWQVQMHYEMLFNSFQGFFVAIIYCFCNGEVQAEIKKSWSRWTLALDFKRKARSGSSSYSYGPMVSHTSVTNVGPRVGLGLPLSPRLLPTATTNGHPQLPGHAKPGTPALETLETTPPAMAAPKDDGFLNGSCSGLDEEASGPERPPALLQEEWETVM
Kind of test: Competitive antagonist binding assay for hPTH-R1 (radioactive competition binding, SPA beads). Conditions: human PTHR1 membranes, [125I]-[Nle8,18,Tyr34]-PTH(1-34) 0.2 nM, 90 minutes at room temperature; read-out: hPTHR1 Ki. In short, it runs like this: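 Displacement of 0.2 nM radioiodinated [Nle8,18,Tyr34]-PTH(1-34) from membrane-bound human PTHR1 measured by scintillation proximity after 90 min at room temperature. Compounds typically 0-10,000 nM final, pH 7.4 HEPES/Mg/Ca buffer with BSA and detergent. Ki calculated from competition data.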

Consider `CCN1C(=O)N(c2c(F)cc(NCCNC)cc2F)c2cc(F)ccc2-c2cc(Cl)cnc21` [1-130, 4-chloro-10-(2,6-difluoro-4-{[2-(methylamino)ethyl]amino}phenyl)-8-ethyl-13-fluoro-6,8,10-triazatricyclo[9.4.0.0^2,7]pentadeca-1(11),2(7),3,5,12,14-hexaen-9-one], for which the Ki – broadly, a measure of affinity in units of concentration, obtained from inhibition or displacement – is below 0.1 µM.

With `CCN1C(=O)N(c2c(F)cc(NCCNCCN)cc2F)c2cc(C#N)ccc2-c2cc(Cl)cnc21` [1-131, 10-[4-({2-[(2-aminoethyl)amino]ethyl}amino)-2,6-difluorophenyl]-4-chloro-8-ethyl-9-oxo-6,8,10-triazatricyclo[9.4.0.0^2,7]pentadeca-1(11),2(7),3,5,12,14-hexaene-13-carbonitrile], the Ki was below 0.1 µM.

With `CCN1C(=O)N(c2c(F)cc(NCCNCCN(C)C)cc2F)c2cc(C#N)ccc2-c2cc(Cl)cnc21` [1-132, 4-chloro-10-{4-[(2-{[2-(dimethylamino)ethyl]amino}ethyl)amino]-2,6-difluorophenyl}-8-ethyl-9-oxo-6,8,10-triazatricyclo[9.4.0.0^2,7]pentadeca-1(11),2(7),3,5,12,14-hexaene-13-carbonitrile], the Ki was below 0.1 µM.

Take `CCNCCNc1cc(F)c(N2C(=O)N(CC)c3ncc(Cl)cc3-c3ccc(C#N)cc32)c(F)c1` [1-133, 4-chloro-8-ethyl-10-(4-{[2-(ethylamino)ethyl]amino}-2,6-difluorophenyl)-9-oxo-6,8,10-triazatricyclo[9.4.0.0^2,7]pentadeca-1(11),2(7),3,5,12,14-hexaene-13-carbonitrile]: the Ki was below 0.1 µM.

As to `CCN1C(=O)N(c2c(F)cc(NCCNCCO)cc2F)c2cc(Cl)cc(C#N)c2-c2cc(F)cnc21` [1-134, 13-chloro-10-[2,6-difluoro-4-({2-[(2-hydroxyethyl)amino]ethyl}amino)phenyl]-8-ethyl-4-fluoro-9-oxo-6,8,10-triazatricyclo[9.4.0.0^2,7]pentadeca-1(11),2(7),3,5,12,14-hexaene-15-carbonitrile], the inhibition constant Ki was below 0.1 µM.

For the compound `CCN1C(=O)N(c2c(F)cc(NCCNC)cc2F)c2ccccc2-c2cc(Cl)cnc21` [1-135, 4-chloro-10-(2,6-difluoro-4-{[2-(methylamino)ethyl]amino}phenyl)-8-ethyl-6,8,10-triazatricyclo[9.4.0.0^2,7]pentadeca-1(11),2(7),3,5,12,14-hexaen-9-one], the Ki was below 0.1 µM.

For `CCN1C(=O)N(c2c(F)cc(N3CCNCC3)cc2F)c2cc(C#N)ccc2-c2cc(Cl)cnc21` [1-136, 4-chloro-10-[2,6-difluoro-4-(piperazin-1-yl)phenyl]-8-ethyl-9-oxo-6,8,10-triazatricyclo[9.4.0.0^2,7]pentadeca-1(11),2(7),3,5,12,14-hexaene-13-carbonitrile], the inhibitory constant (Ki) is 0.1 to 1 µM.

`CCN1C(=O)N(c2c(F)cc(NCCNCC(C)O)cc2F)c2cc(C#N)ccc2-c2cc(Cl)cnc21` (stereo not drawn) [1-137, 4-chloro-10-[2,6-difluoro-4-({2-[(2-hydroxypropyl)amino]ethyl}amino)phenyl]-8-ethyl-9-oxo-6,8,10-triazatricyclo[9.4.0.0^2,7]pentadeca-1(11),2(7),3,5,12,14-hexaene-13-carbonitrile]: the inhibition constant (Ki) was below 0.1 µM.

As to `CCN1C(=O)N(c2c(F)cc(NCCNCC(C)(C)O)cc2F)c2cc(C#N)ccc2-c2cc(Cl)cnc21` [1-138, 4-chloro-10-[2,6-difluoro-4-({2-[(2-hydroxy-2-methylpropyl)amino]ethyl}amino)phenyl]-8-ethyl-9-oxo-6,8,10-triazatricyclo[9.4.0.0^2,7]pentadeca-1(11),2(7),3,5,12,14-hexaene-13-carbonitrile], the Ki is below 0.1 µM.

Turning to `CCC(CO)NCCNc1cc(F)c(N2C(=O)N(CC)c3ncc(Cl)cc3-c3ccc(C#N)cc32)c(F)c1` (stereo not drawn) [1-139, 4-chloro-10-[2,6-difluoro-4-({2-[(1-hydroxybutan-2-yl)amino]ethyl}amino)phenyl]-8-ethyl-9-oxo-6,8,10-triazatricyclo[9.4.0.0^2,7]pentadeca-1(11),2(7),3,5,12,14-hexaene-13-carbonitrile], the Ki is below 0.1 µM.

`CCN1C(=O)N(c2c(F)cc(NCCNCCNC(N)=O)cc2F)c2cc(C#N)ccc2-c2cc(Cl)cnc21` [1-140, [2-({2-[(4-{4-chloro-13-cyano-8-ethyl-9-oxo-6,8,10-triazatricyclo[9.4.0.0^2,7]pentadeca-1(11),2(7),3,5,12,14-hexaen-10-yl}-3,5-difluorophenyl)amino]ethyl}amino)ethyl]urea]: the Ki is below 0.1 µM.

`CCN1C(=O)N(c2c(F)cc(NCCNCCS(=O)(=O)O)cc2F)c2cc(C#N)ccc2-c2cc(Cl)cnc21` [1-141, 2-({2-[(4-{4-chloro-13-cyano-8-ethyl-9-oxo-6,8,10-triazatricyclo[9.4.0.0^2,7]pentadeca-1(11),2(7),3,5,12,14-hexaen-10-yl}-3,5-difluorophenyl)amino]ethyl}amino)ethane-1-sulfonic acid]: the Ki was below 0.1 µM.

Turning to `CCN1C(=O)N(c2c(F)cc(NCCNCCO)cc2F)c2ccccc2-c2cc(Cl)cnc21` [1-142, 4-chloro-10-[2,6-difluoro-4-({2-[(2-hydroxyethyl)amino]ethyl}amino)phenyl]-8-ethyl-6,8,10-triazatricyclo[9.4.0.0^2,7]pentadeca-1(11),2(7),3,5,12,14-hexaen-9-one], the Ki was below 0.1 µM.

On to `CCN1C(=O)N(c2c(F)cc(N3CCCNCC3)cc2F)c2cc(C#N)ccc2-c2cc(Cl)cnc21` [1-143, 4-chloro-10-[4-(1,4-diazepan-1-yl)-2,6-difluorophenyl]-8-ethyl-9-oxo-6,8,10-triazatricyclo[9.4.0.0^2,7]pentadeca-1(11),2(7),3,5,12,14-hexaene-13-carbonitrile], for which the Ki is below 0.1 µM.

For `CCN1C(=O)N(c2c(F)cc(N3CCN(CCO)CC3)cc2F)c2cc(C#N)ccc2-c2cc(Cl)cnc21` [1-144, 4-chloro-10-{2,6-difluoro-4-[4-(2-hydroxyethyl)piperazin-1-yl]phenyl}-8-ethyl-9-oxo-6,8,10-triazatricyclo[9.4.0.0^2,7]pentadeca-1(11),2(7),3,5,12,14-hexaene-13-carbonitrile], the Ki was below 0.1 µM.

As to `CCN1C(=O)N(c2c(F)cc(NCC3CNC3)cc2F)c2cc(C#N)ccc2-c2cc(Cl)cnc21` [1-145, 10-(4-{[(azetidin-3-yl)methyl]amino}-2,6-difluorophenyl)-4-chloro-8-ethyl-9-oxo-6,8,10-triazatricyclo[9.4.0.0^2,7]pentadeca-1(11),2(7),3,5,12,14-hexaene-13-carbonitrile], the Ki was below 0.1 µM.

Turning to `CCN1C(=O)N(c2c(F)cc(N(C)CCNC)cc2F)c2cc(C#N)ccc2-c2cc(Cl)cnc21` [1-146, 4-chloro-10-(2,6-difluoro-4-{methyl[2-(methylamino)ethyl]amino}phenyl)-8-ethyl-9-oxo-6,8,10-triazatricyclo[9.4.0.0^2,7]pentadeca-1(11),2(7),3,5,12,14-hexaene-13-carbonitrile], the Ki was below 0.1 µM.

For `CCN1C(=O)N(c2c(F)cc(NC[C@H]3COCCN3)cc2F)c2cc(C#N)ccc2-c2cc(Cl)cnc21` [1-147, 4-chloro-10-[2,6-difluoro-4-({[(3S)-morpholin-3-yl]methyl}amino)phenyl]-8-ethyl-9-oxo-6,8,10-triazatricyclo[9.4.0.0^2,7]pentadeca-1(11),2(7),3,5,12,14-hexaene-13-carbonitrile], the Ki was below 0.1 µM.
